Earlier results on two compounds are cited in patent US20140199405A1, “METHOD FOR TREATING CANCER BASED ON MUTATION STATUS OF K-RAS” (priority 2013, published 2014).

Data set [1] deals with locally advanced pancreatic cancer. The conditions noted are these: patients with locally advanced pancreatic cancer.
In another data set the test system is pancreatic cancer. Particulars: combination versus gemcitabine monotherapy.

Structures are written as SMILES.

Regarding `O=c1[nH]cc(F)c(=O)[nH]1` [5-FU, 5-fluororuracil], in data set [1], the median overall survival is 4.2 months and the “median time to disease progression” value is reported as 0.9 months.
Consider `Nc1ccn([C@@H]2O[C@H](CO)[C@@H](O)C2(F)F)c(=O)n1` [gemcitabine], for which, in data set [1], the median overall survival was 5.7 months and the “median time to disease progression” value is 2.1 months. Besides, in the data set with pancreatic cancer, the median overall survival was 6.0 months and the “median progression free survival” value is recorded as 3.5 months.
